According to US9695103B2 (priority 2014, dated 2017):
“And” between values parts separate entries of the source, which are not always exact repeats. Identical values can stand only once.

Legend:
daphnias = assay: Biocidal activity against crustaceans (daphnias), FR. 1.39.2007,03223 procedure; settings: test time 96 h; for Number of survived daphnias (the average over parallel set of samples), Test sample: control sample 10
E. coli No. 906 = assay: Bactericidal activity: exposure of bacterial culture in salt solution, neutralization, inoculation on solid nutrient medium; type: cell-based; parameters: key: NG - no growth; CG - confluent growth
S. aureus No. 1257 = assay: as above; type: cell-based; parameters: key: NG - no growth; CG - confluent growth
[1] = system: clinical strain P. aeruginosa; assay: as above; type: cell-based; parameters: key: NG - no growth; CG - confluent growth
[2] = system: E. coli No. 906, S. aureus No. 1257, clinical strain P. aeruginosa; assay: Bactericidal activity, summary statement over investigated strains; type: cell-based; settings: concentration of 2.0%, time of exposure from 30 min
fungal spores = assay: Fungicidal activity according to GOST 30028.4-2006, resistance of treated materials to fungal spores; type: cell-based; settings: additive content 5 % wt.
[3] = 0.00001 % wt. in aqueous medium
[4] = Paper impregnated with latex SKS 65 GP

## C=CC(=O)[O-].O=C([O-])c1ccccc1.[Cu+2] [Copper acrylate-benzoate, reference compound]
daphnias; [3]
  Daphnia death rate in test sample, % of control sample: 0 % of control sample
  Number of survived daphnias (the average over parallel set of samples), Test sample: 10
daphnias; 0.0001 % wt. in aqueous medium
  Daphnia death rate in test sample, % of control sample: 0 % of control sample
  Number of survived daphnias (the average over parallel set of samples), Test sample: 10
daphnias; 0.001 % wt. in aqueous medium
  Daphnia death rate in test sample, % of control sample: 0 % of control sample
  Number of survived daphnias (the average over parallel set of samples), Test sample: 10
daphnias; 0.01 % wt. in aqueous medium
  Daphnia death rate in test sample, % of control sample: 0 % of control sample
  Number of survived daphnias (the average over parallel set of samples), Test sample: 10
daphnias; 0.1 % wt. in aqueous medium
  Daphnia death rate in test sample, % of control sample: 10 % of control sample
  Number of survived daphnias (the average over parallel set of samples), Test sample: 9
daphnias; 1 % wt. in aqueous medium
  Daphnia death rate in test sample, % of control sample: 20 % of control sample
  Number of survived daphnias (the average over parallel set of samples), Test sample: 8

## C=CC(=O)[O][Cu][O]C(=O)C(O)C(O)C(=O)O (centres unmarked) [Copper acrylate-tartrate]
E. coli No. 906; 1.5 % wt., exposure 60 min
  Bactericidal activity, growth of E. coli 906: NG
E. coli No. 906; 2.0 % wt., exposure 5 min
  Bactericidal activity, growth of E. coli 906: NG
E. coli No. 906; 2.0 % wt., exposure 15 min
  Bactericidal activity, growth of E. coli 906: NG
E. coli No. 906; 2.0 % wt., exposure 30 min
  Bactericidal activity, growth of E. coli 906: NG
E. coli No. 906; 2.0 % wt., exposure 60 min
  Bactericidal activity, growth of E. coli 906: NG
E. coli No. 906; 3.0 % wt., exposure 5 min
  Bactericidal activity, growth of E. coli 906: NG
E. coli No. 906; 3.0 % wt., exposure 15 min
  Bactericidal activity, growth of E. coli 906: NG
E. coli No. 906; 3.0 % wt., exposure 30 min
  Bactericidal activity, growth of E. coli 906: NG
S. aureus No. 1257; 1.5 % wt., exposure 60 min
  Bactericidal activity, growth of S. aureus 1257: NG
S. aureus No. 1257; 2.0 % wt., exposure 5 min
  Bactericidal activity, growth of S. aureus 1257: NG
S. aureus No. 1257; 2.0 % wt., exposure 15 min
  Bactericidal activity, growth of S. aureus 1257: NG
S. aureus No. 1257; 2.0 % wt., exposure 30 min
  Bactericidal activity, growth of S. aureus 1257: NG
S. aureus No. 1257; 2.0 % wt., exposure 60 min
  Bactericidal activity, growth of S. aureus 1257: NG
S. aureus No. 1257; 3.0 % wt., exposure 5 min
  Bactericidal activity, growth of S. aureus 1257: NG
S. aureus No. 1257; 3.0 % wt., exposure 15 min
  Bactericidal activity, growth of S. aureus 1257: NG
S. aureus No. 1257; 3.0 % wt., exposure 30 min
  Bactericidal activity, growth of S. aureus 1257: NG
[1]; 1.5 % wt., exposure 30 min
  Bactericidal activity, growth of P. aeruginosa: CG
[1]; 1.5 % wt., exposure 60 min
  Bactericidal activity, growth of P. aeruginosa: CG
[1]; 2.0 % wt., exposure 5 min
  Bactericidal activity, growth of P. aeruginosa: CG
[1]; 2.0 % wt., exposure 15 min
  Bactericidal activity, growth of P. aeruginosa: >300 CFU
[1]; 2.0 % wt., exposure 60 min
  Bactericidal activity, growth of P. aeruginosa: NG
[1]; 3.0 % wt., exposure 5 min
  Bactericidal activity, growth of P. aeruginosa: NG
[1]; 3.0 % wt., exposure 15 min
  Bactericidal activity, growth of P. aeruginosa: NG
[1]; 3.0 % wt., exposure 30 min
  Bactericidal activity, growth of P. aeruginosa: NG
[2]
  bactericidal effect against investigated strains: stable bactericidal effect
Fungal spores; [4]
  Tolerance time: 16 days
Fungal spores; Polyvinyl chloride emulsion
  Tolerance time: 17 days

## C=CC(=O)[O][Zn][O]C(=O)C(O)(CC(=O)O)CC(=O)O [Zinc acrylate-citrate]
Fungal spores; Polyvinyl chloride emulsion
  Tolerance time: 17 days

## C=CC(=O)[O-].CC(O)C(=O)[O-].[Zn+2] (centres unmarked) [Zinc acrylate-lactate]
daphnias; 0.0001 % wt. in aqueous medium
  Daphnia death rate in test sample, % of control sample: 90 % of control sample
  Number of survived daphnias (the average over parallel set of samples), Test sample: 1
daphnias; 0.001 % wt. in aqueous medium
  Daphnia death rate in test sample, % of control sample: 100 % of control sample and 70 % of control sample
daphnias; 0.01 % wt. in aqueous medium
  Daphnia death rate in test sample, % of control sample: 100 % of control sample
  Number of survived daphnias (the average over parallel set of samples), Test sample: 0
daphnias; 0.1 % wt. in aqueous medium
  Daphnia death rate in test sample, % of control sample: 100 % of control sample
  Number of survived daphnias (the average over parallel set of samples), Test sample: 0
daphnias; 1 % wt. in aqueous medium
  Daphnia death rate in test sample, % of control sample: 100 % of control sample
  Number of survived daphnias (the average over parallel set of samples), Test sample: 0

## C=CC(=O)[O][Zn][O]C(=O)CC(=O)O [Zinc acrylate-malonate]
E. coli No. 906; 1.5 % wt., exposure 5 min
  Bactericidal activity, growth of E. coli 906: >300 CFU
E. coli No. 906; 1.5 % wt., exposure 15 min
  Bactericidal activity, growth of E. coli 906: 78 CFU
E. coli No. 906; 1.5 % wt., exposure 30 min
  Bactericidal activity, growth of E. coli 906: 45 CFU and 53 CFU
E. coli No. 906; 1.5 % wt., exposure 60 min
  Bactericidal activity, growth of E. coli 906: 5 CFU and 4 CFU
E. coli No. 906; 2.0 % wt., exposure 5 min
  Bactericidal activity, growth of E. coli 906: 1 CFU
E. coli No. 906; 2.0 % wt., exposure 15 min
  Bactericidal activity, growth of E. coli 906: NG
E. coli No. 906; 2.0 % wt., exposure 30 min
  Bactericidal activity, growth of E. coli 906: NG
E. coli No. 906; 2.0 % wt., exposure 60 min
  Bactericidal activity, growth of E. coli 906: NG
S. aureus No. 1257; 1.5 % wt., exposure 5 min
  Bactericidal activity, growth of S. aureus 1257: >300 CFU
S. aureus No. 1257; 1.5 % wt., exposure 15 min
  Bactericidal activity, growth of S. aureus 1257: 85 CFU
S. aureus No. 1257; 1.5 % wt., exposure 30 min
  Bactericidal activity, growth of S. aureus 1257: 35 CFU and 43 CFU
S. aureus No. 1257; 2.0 % wt., exposure 5 min
  Bactericidal activity, growth of S. aureus 1257: NG
S. aureus No. 1257; 2.0 % wt., exposure 15 min
  Bactericidal activity, growth of S. aureus 1257: NG
S. aureus No. 1257; 2.0 % wt., exposure 30 min
  Bactericidal activity, growth of S. aureus 1257: NG
S. aureus No. 1257; 2.0 % wt., exposure 60 min
  Bactericidal activity, growth of S. aureus 1257: NG
[2]
  bactericidal effect against investigated strains: stable bactericidal effect
Fungal spores; [4]
  Tolerance time: 20 days
Fungal spores; Polyvinyl chloride emulsion
  Tolerance time: 18 days

## C=C(C)C(=O)O.O=C([O-])CC(O)C(=O)[O-].[Zn+2] (centres unmarked) [Zinc methacrylate-malate]
Fungal spores; Polyvinyl chloride emulsion
  Tolerance time: 9 days

## copper methacrylate-glycolate
E. coli No. 906; 1.5 % wt., exposure 30 min
  Bactericidal activity, growth of E. coli 906: CG
E. coli No. 906; 1.5 % wt., exposure 60 min
  Bactericidal activity, growth of E. coli 906: >300 CFU
E. coli No. 906; 2.0 % wt., exposure 5 min
  Bactericidal activity, growth of E. coli 906: CG
E. coli No. 906; 2.0 % wt., exposure 15 min
  Bactericidal activity, growth of E. coli 906: >300 CFU
E. coli No. 906; 2.0 % wt., exposure 30 min
  Bactericidal activity, growth of E. coli 906: NG
E. coli No. 906; 2.0 % wt., exposure 60 min
  Bactericidal activity, growth of E. coli 906: NG
E. coli No. 906; 3.0 % wt., exposure 5 min
  Bactericidal activity, growth of E. coli 906: NG
E. coli No. 906; 3.0 % wt., exposure 15 min
  Bactericidal activity, growth of E. coli 906: NG
E. coli No. 906; 3.0 % wt., exposure 30 min
  Bactericidal activity, growth of E. coli 906: NG
S. aureus No. 1257; 1.5 % wt., exposure 30 min
  Bactericidal activity, growth of S. aureus 1257: CG
S. aureus No. 1257; 1.5 % wt., exposure 60 min
  Bactericidal activity, growth of S. aureus 1257: >300 CFU
S. aureus No. 1257; 2.0 % wt., exposure 5 min
  Bactericidal activity, growth of S. aureus 1257: CG
S. aureus No. 1257; 2.0 % wt., exposure 15 min
  Bactericidal activity, growth of S. aureus 1257: >300 CFU
S. aureus No. 1257; 2.0 % wt., exposure 30 min
  Bactericidal activity, growth of S. aureus 1257: NG
S. aureus No. 1257; 2.0 % wt., exposure 60 min
  Bactericidal activity, growth of S. aureus 1257: NG
S. aureus No. 1257; 3.0 % wt., exposure 5 min
  Bactericidal activity, growth of S. aureus 1257: NG
S. aureus No. 1257; 3.0 % wt., exposure 15 min
  Bactericidal activity, growth of S. aureus 1257: NG
S. aureus No. 1257; 3.0 % wt., exposure 30 min
  Bactericidal activity, growth of S. aureus 1257: NG
[1]; 1.5 % wt., exposure 30 min
  Bactericidal activity, growth of P. aeruginosa: CG
[1]; 1.5 % wt., exposure 60 min
  Bactericidal activity, growth of P. aeruginosa: CG
[1]; 2.0 % wt., exposure 5 min
  Bactericidal activity, growth of P. aeruginosa: CG
[1]; 2.0 % wt., exposure 15 min
  Bactericidal activity, growth of P. aeruginosa: >300 CFU
[1]; 2.0 % wt., exposure 60 min
  Bactericidal activity, growth of P. aeruginosa: NG
[1]; 3.0 % wt., exposure 5 min
  Bactericidal activity, growth of P. aeruginosa: NG
[1]; 3.0 % wt., exposure 15 min
  Bactericidal activity, growth of P. aeruginosa: NG
[1]; 3.0 % wt., exposure 30 min
  Bactericidal activity, growth of P. aeruginosa: NG
[2]
  bactericidal effect against investigated strains: stable bactericidal effect
Fungal spores; [4]
  Tolerance time: 8 days
Fungal spores; Paper impregnated with petrolatum base
  Tolerance time: 8 days
Fungal spores; Polyvinyl chloride emulsion
  Tolerance time: 10 days
daphnias; [3]
  Number of survived daphnias (the average over parallel set of samples), Test sample: 1
daphnias; 0.0001 % wt. in aqueous medium
  Number of survived daphnias (the average over parallel set of samples), Test sample: 0
daphnias; 0.001 % wt. in aqueous medium
  Number of survived daphnias (the average over parallel set of samples), Test sample: 0
daphnias; 0.01 % wt. in aqueous medium
  Number of survived daphnias (the average over parallel set of samples), Test sample: 0
daphnias; 0.1 % wt. in aqueous medium
  Number of survived daphnias (the average over parallel set of samples), Test sample: 0
daphnias; 1 % wt. in aqueous medium
  Number of survived daphnias (the average over parallel set of samples), Test sample: 0
